{"source": "patent US9096565B2", "about": "“Inhibitors of histone deacetylase” (MethylGene Inc., priority 2007, dated 2015)", "data": [{"target": "one or more of HDAC-4, HDAC-5, HDAC-6, HDAC-7, HDAC-8, HDAC-9, HDAC-10 and HDAC-11", "test": "Inhibition of histone deacetylase enzymatic activity (summary statement over isoforms)", "type": "biochemical", "details": "Table 3, selected examples; HDAC isoform not given", "procedure,_shortened": "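HDAC enzyme mix with compound was preincubated 5 min at room temperature. Reaction was started at 37 °C with Boc-Lys(trifluoroacetyl)-AMC substrate and run 20-30 min. It was stopped with trypsin (1 mg/mL) plus a known HDAC inhibitor to release the fluorogenic AMC.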", "units": {"IC50": "µM"}, "values": [{"smiles": "Cc1ccsc1C(=O)Nc1ccc(C(C(=O)NO)c2ccccc2)cc1", "note": "(stereo not shown) [Compound 2-65, N-(4-(2-(hydroxyamino)-2-oxo-1-phenylethyl)phenyl)-3-methylthiophene-2-carboxamide]", "IC50": "< 1"}, {"smiles": "O=C(NO)C(c1ccccc1)c1ccc(OCc2ccc(F)cc2F)cc1", "note": "(stereo not shown) [Compound 3-67, 2-(4-(2,4-difluorobenzyloxy)phenyl)-N-hydroxy-2-phenylacetamide]", "IC50": "< 1"}, {"smiles": "O=C(NO)C(c1ccccc1)c1ccc(OC/C=C/c2ccccc2)cc1", "note": "(stereo not shown) [Compound 3-85, (E)-2-(4-(cinnamyloxy)phenyl)-N-hydroxy-2-phenylacetamide]", "IC50": "< 1"}, {"smiles": "O=C(NO)C(c1ccccc1)c1cccc(OCCN2CCCC2)c1", "note": "(stereo not shown) [Compound 3-19, N-hydroxy-2-phenyl-2-(3-(2-(pyrrolidin-1-yl)ethoxy)phenyl)acetamide]", "IC50": "< 1"}, {"smiles": "O=C(NO)C(c1ccccc1)n1cc(-c2ccccc2)nn1", "note": "(stereo not shown) [Compound 1-26, N-hydroxy-2-phenyl-2-(4-phenyl-1H-1,2,3-triazol-1-yl)acetamide]", "IC50": "< 1"}, {"smiles": "COc1ccccc1-c1nnc(C(C(=O)NO)c2ccccc2)s1", "note": "(stereo not shown) [Compound 1-38, N-hydroxy-2-(5-(2-methoxyphenyl)-1,3,4-thiadiazol-2-yl)-2-phenylacetamide]", "IC50": "< 1"}, {"smiles": "O=C(NO)C(c1ccccc1)c1cccc(N2CCC(N3CCCC3)CC2)c1", "note": "(stereo not shown) [Compound 3-76, N-hydroxy-2-phenyl-2-(3-(4-(pyrrolidin-1-yl)piperidin-1-yl)phenyl)acetamide]", "IC50": "< 1"}, {"smiles": "O=C(NO)C(c1ccccc1)c1ccc(-n2cccn2)cc1", "note": "(stereo not shown) [Compound 5-72, 2-(4-(1H-pyrazol-1-yl)phenyl)-N-hydroxy-2-phenylacetamide]", "IC50": "< 1"}, {"smiles": "COc1ccc(COc2cccc(C(C(=O)NO)c3ccccc3)c2)cc1", "note": "(stereo not shown) [Compound 3-6, N-hydroxy-2-(3-(4-methoxybenzyloxy)phenyl)-2-phenylacetamide]", "IC50": "< 1"}, {"smiles": "O=C(NO)C(c1ccccc1)N1CCN(C(=O)OCc2ccccc2)CC1", "note": "(stereo not shown) [Compound 5-61, benzyl 4-(2-(hydroxyamino)-2-oxo-1-phenylethyl)piperazine-1-carboxylate]", "IC50": "1 to 15"}, {"smiles": "CC(Oc1cccc(C(C(=O)NO)c2ccccc2)c1)c1ccccc1", "note": "(stereo not shown) [Compound 3-8, N-hydroxy-2-phenyl-2-(3-(1-phenylethoxy)phenyl)acetamide]", "IC50": "1 to 15"}, {"smiles": "O=C(NO)C(c1ccccc1)c1ccc(-c2ccc(F)cc2)cc1", "note": "(stereo not shown) [Compound 1-45, 2-(4′-fluorobiphenyl-4-yl)-N-hydroxy-2-phenylacetamide]", "IC50": "< 1"}, {"smiles": "O=C(NO)C(c1ccccc1)c1cccc(C#Cc2cccnc2)c1", "note": "(stereo not shown) [Compound 2-95, N-hydroxy-2-phenyl-2-(3-(pyridin-3-ylethynyl)phenyl)acetamide]", "IC50": "< 1"}, {"smiles": "CC(C)CC(=O)Nc1ccc(C(C(=O)NO)c2ccccc2)cc1", "note": "(stereo not shown) [Compound 2-53, N-(4-(2-(hydroxyamino)-2-oxo-1-phenylethyl)phenyl)-3-methylbutanamide]", "IC50": "< 1"}, {"smiles": "CN(C)c1ccc(-c2ccc(C(C(=O)NO)c3ccccc3)cc2)cn1", "note": "(stereo not shown) [Compound 5-58, 2-(4-(6-(dimethylamino)pyridin-3-yl)phenyl)-N-hydroxy-2-phenylacetamide]", "IC50": "< 1"}, {"smiles": "O=C(NO)C(c1ccccc1)c1ccc(OCc2cccc(OC(F)(F)F)c2)cc1", "note": "(stereo not shown) [Compound 3-86, N-hydroxy-2-phenyl-2-(4-(3-(trifluoromethoxy)benzyloxy)phenyl)acetamide]", "IC50": "< 1"}, {"smiles": "O=C(NO)C(c1ccccc1)c1ccc(N2CCCCC2)cc1", "note": "(stereo not shown) [Compound 5-70, N-hydroxy-2-phenyl-2-(4-(piperidin-1-yl)phenyl)acetamide]", "IC50": "< 1"}, {"smiles": "O=C(NO)C(c1ccccc1)c1cccc(NCc2ccccn2)c1", "note": "(stereo not shown) [Compound 3-74, N-hydroxy-2-phenyl-2-(3-(pyridin-2-ylmethylamino)phenyl)acetamide]", "IC50": "< 1"}, {"smiles": "O=C(NO)C(c1ccccc1)c1ccc(OC2CCN(Cc3ccccc3)CC2)cc1", "note": "(stereo not shown) [Compound 5-123, 2-(4-(1-benzylpiperidin-4-yloxy)phenyl)-N-hydroxy-2-phenylacetamide]", "IC50": "< 1"}, {"smiles": "O=C(NO)C(c1ccccc1)c1ccc(-c2ccc(Oc3ccccc3)cc2)cc1", "note": "(stereo not shown) [Compound 2-117, N-hydroxy-2-(4′-phenoxybiphenyl-4-yl)-2-phenylacetamide]", "IC50": "< 1"}, {"smiles": "O=C(NO)C(c1ccccc1)C1CCN(C(=O)c2ccccc2)CC1", "note": "(stereo not shown) [Compound 5-127, 2-(1-benzoylpiperidin-4-yl)-N-hydroxy-2-phenylacetamide]", "IC50": "1 to 15"}, {"smiles": "O=C(COc1ccccc1)Nc1cccc(C(C(=O)NO)c2ccccc2)c1", "note": "(stereo not shown) [Compound 2-68, N-hydroxy-2-(3-(2-phenoxyacetamido)phenyl)-2-phenylacetamide]", "IC50": "< 1"}, {"smiles": "O=C(NO)C(c1ccccc1)C1CCCCC1", "note": "(stereo not shown) [Compound 1-10, 2-cyclohexyl-N-hydroxy-2-phenylacetamide]", "IC50": "< 1"}, {"smiles": "Cc1ccc(C(C(=O)NO)c2ccc(N3CCOCC3)cc2)cc1", "note": "(stereo not shown) [Compound 5-115, N-hydroxy-2-(4-morpholinophenyl)-2-p-tolylacetamide]", "IC50": "1 to 15"}, {"smiles": "O=C(NO)C(Oc1ccc(-c2ccccc2)cc1)c1ccccc1", "note": "(stereo not shown) [Compound 5-14, 2-(biphenyl-4-yloxy)-N-hydroxy-2-phenylacetamide]", "IC50": "1 to 15"}, {"smiles": "O=C(Cc1ccccc1)Nc1ccc(C(C(=O)NO)c2ccccc2)cc1", "note": "(stereo not shown) [Compound 2-59, N-hydroxy-2-phenyl-2-(4-(2-phenylacetamido)phenyl)acetamide]", "IC50": "< 1"}, {"smiles": "COc1ccc(C2CCN(C(C(=O)NO)c3ccccc3)CC2)cc1", "note": "(stereo not shown) [Compound 5-24, N-hydroxy-2-(4-(4-methoxyphenyl)piperidin-1-yl)-2-phenylacetamide]", "IC50": "< 1"}, {"smiles": "Cc1cccc(COc2ccc(C(C(=O)NO)c3ccccc3)cc2)c1", "note": "(stereo not shown) [Compound 3-58, N-hydroxy-2-(4-(3-methylbenzyloxy)phenyl)-2-phenylacetamide]", "IC50": "< 1"}, {"smiles": "O=C(NO)C(c1ccccc1)c1ccc(OCc2ccccc2)cc1", "note": "(stereo not shown) [Compound 5-33, 2-(4-(benzyloxy)phenyl)-N-hydroxy-2-phenylacetamide]", "IC50": "< 1"}, {"smiles": "O=C(NO)C(c1ccccc1)c1ccc(-n2ccc3ccccc32)cc1", "note": "(stereo not shown) [Compound 5-81, 2-(4-(1H-indol-1-yl)phenyl)-N-hydroxy-2-phenylacetamide]", "IC50": "< 1"}, {"smiles": "O=C(NO)C(O)(c1ccccc1)c1ccccc1", "note": "[Compound 1-28, N,2-dihydroxy-2,2-diphenylacetamide]", "IC50": "< 1"}, {"smiles": "O=C(NO)C(c1ccccc1)c1ccc(N2CCN(CC3CC3)CC2)cc1", "note": "(stereo not shown) [Compound 5-105, 2-(4-(4-(cyclopropylmethyl)piperazin-1-yl)phenyl)-N-hydroxy-2-phenylacetamide]", "IC50": "< 1"}, {"smiles": "Cc1ccc(OC(C(=O)NO)c2ccccc2)cc1", "note": "(stereo not shown) [Compound 2-15, N-hydroxy-2-phenyl-2-(p-tolyloxy)acetamide]", "IC50": "1 to 15"}, {"smiles": "O=C(NO)C(c1ccc(N2CCOCC2)cc1)c1ccccc1O", "note": "(stereo not shown) [Compound 6-26, N-hydroxy-2-(2-hydroxyphenyl)-2-(4-morpholinophenyl)acetamide]", "IC50": "1 to 15"}, {"smiles": "O=C(NO)C(c1ccccc1)c1ccc(C#Cc2ccccc2)cc1", "note": "(stereo not shown) [Compound 2-97, N-hydroxy-2-phenyl-2-(4-(phenylethynyl)phenyl)acetamide]", "IC50": "< 1"}, {"smiles": "O=C(NO)C(c1ccccc1)c1nc2ccc(-c3cccs3)cc2[nH]1", "note": "(stereo not shown) [Compound 1-20, N-hydroxy-2-phenyl-2-(6-(thiophen-2-yl)-1H-benzo[d]imidazol-2-yl)acetamide]", "IC50": "< 1"}, {"smiles": "CN(C)CCCOc1ccc(C(C(=O)NO)c2ccccc2)cc1", "note": "(stereo not shown) [Compound 3-16, 2-(4-(3-(dimethylamino)propoxy)phenyl)-N-hydroxy-2-phenylacetamide]", "IC50": "< 1"}, {"smiles": "CCN(Cc1ccccc1)c1ccc(C(C(=O)NO)c2ccccc2)cc1", "note": "(stereo not shown) [Compound 5-44, 2-(4-(benzyl(ethyl)amino)phenyl)-N-hydroxy-2-phenylacetamide]", "IC50": "< 1"}, {"smiles": "O=C(NO)C(c1ccccc1)c1ccc(-n2ccnc2)cc1", "note": "(stereo not shown) [Compound 5-88, 2-(4-(1H-imidazol-1-yl)phenyl)-N-hydroxy-2-phenylacetamide]", "IC50": "< 1"}, {"smiles": "Cc1ccc(OC(C(=O)NO)c2ccccc2)c(Cl)c1", "note": "(stereo not shown) [Compound 7-20, 2-(2-chloro-4-methylphenoxy)-N-hydroxy-2-phenylacetamide]", "IC50": "1 to 15"}, {"smiles": "O=C(NO)C(c1ccccc1)c1ccc(N2CCN(S(=O)(=O)c3ccccc3)CC2)cc1", "note": "(stereo not shown) [Compound 5-97, N-hydroxy-2-phenyl-2-(4-(4-(phenylsulfonyl)piperazin-1-yl)phenyl)acetamide]", "IC50": "< 1"}, {"smiles": "O=C(NO)C(c1ccccc1)c1ccc(OCc2ccccc2Cl)cc1", "note": "(stereo not shown) [Compound 3-65, 2-(4-(2-chlorobenzyloxy)phenyl)-N-hydroxy-2-phenylacetamide]", "IC50": "< 1"}, {"smiles": "O=C(NO)C(c1ccccc1)c1ccc(-c2ccc(F)c(F)c2)cc1", "note": "(stereo not shown) [Compound 5-49, 2-(3′,4′-difluorobiphenyl-4-yl)-N-hydroxy-2-phenylacetamide]", "IC50": "< 1"}, {"smiles": "CCCCOc1cccc(C(C(=O)NO)c2ccccc2)c1", "note": "(stereo not shown) [Compound 2-5, 2-(3-butoxyphenyl)-N-hydroxy-2-phenylacetamide]", "IC50": "1 to 15"}, {"smiles": "COCCOCCOc1ccc(C(C(=O)NO)c2ccccc2)cc1", "note": "(stereo not shown) [Compound 3-90, N-hydroxy-2-(4-(2-(2-methoxyethoxy)ethoxy)phenyl)-2-phenylacetamide]", "IC50": "< 1"}, {"smiles": "O=C(NO)C(c1ccccc1)N1CCC(c2nc3ccccc3o2)CC1", "note": "(stereo not shown) [Compound 5-35, 2-(4-(benzo[d]oxazol-2-yl)piperidin-1-yl)-N-hydroxy-2-phenylacetamide]", "IC50": "< 1"}, {"smiles": "O=C(NO)C(c1ccccc1)N1CCN(c2ccccc2)CC1", "note": "(stereo not shown) [Compound 1-16, N-hydroxy-2-phenyl-2-(4-phenylpiperazin-1-yl)acetamide]", "IC50": "< 1"}, {"smiles": "O=C(NO)C(c1ccccc1)c1cccc(OCc2ccccc2F)c1", "note": "(stereo not shown) [Compound 3-34, 2-(3-(2-fluorobenzyloxy)phenyl)-N-hydroxy-2-phenylacetamide]", "IC50": "< 1"}, {"smiles": "O=C(NO)C(Oc1ccc(C(F)(F)F)cc1)c1ccccc1", "note": "(stereo not shown) [Compound 7-44, N-hydroxy-2-phenyl-2-(4-(trifluoromethyl)phenoxy)acetamide]", "IC50": "1 to 15"}]}]}
